Source: patent US11826402B2, “Combination therapy involving antibodies against claudin 18.2 for treatment of metastatic pancreatic adenocarcinoma” (Astellas Pharma Inc., priority 2013, dated 2023)
≈ marks a conversion by molar mass, not a printed value.

Experiments:
Capan1-LVT = test: Inhibition of proliferation (XTT viability assay, 4 days); assay type: cell-based; settings: Homo sapiens, 96 h, 4 days exposure
Description: To analyze dose-response curves of each chemotherapeutic agent, a proliferation assay was performed.
Cells were seeded in 96 well plates and after 4-6 hours gemcitabine or oxaliplatin was added in following concentrations: 1000, 500, 250, 100 and 20 ng/ml. The proliferation assay was incubated for 4 days at 37° C. and 5% CO2. 50 μl XTT complete reagent (50 parts XTT+1 part coupl. reagent mixed) was added and incubated at 37° C. Measurement of absorbance (cells plus supernatant) was done with the Tecan Safire after 3 h and 4 h. Inhibition of proliferation was calculated compared to medium values set as 100%. EC50 values for gemcitabine and oxaliplatin were calculated in the GraphPad Prism program.

[1] = tested on: LVT pancreatic cancer cell lines; test: IMAB362-mediated ADCC assay, LVT pancreatic cancer cell lines and corresponding parental cell lines; assay type: cell-based, human; settings: for ADCC EC50 / ADCC Max. lysis: at least 2 donors
Description: For ADCC assays pancreatic cancer cell lines were transiently transfected with luciferase RNA. This luciferase RNA (pST1-luc2mut-2 hBgUTR-A121-EciI vector (pST1-109)) was produced with an ARCA cap and dissolved in H2O. RNA was stored in 22 μl aliquots at −80° C. For all pancreas cell lines the optimal electroporation conditions were determined resulting in highest transfection rates and viability of the cells. In each assay cells were detached with PBS/5 mM EDTA and 2.5×10^6 cells dissolved in 250 μl X-Vivo were mixed in ice-cold cuvettes with 10 μg RNA. Cells were immediately electroporated (GenePulser Xcell, Biorad) and resuspended in pre-warmed Assay-medium adjusting the cells to 5×10^5 cells/ml. Tested electroporation conditions were for all cell lines: • EP1: 250 V, 475 μF • EP2: 200 V, 300 μF • EP3: 150 V, 300 μF • EP4: 200 V, 400 μF • EP5: 250 V, 950 μF • Control: 0 V, 0 μF
The viability of the cells was determined directly after electroporation using CASY or by staining cells with Trypan blue and determining the percentage of dead cells in the Neubauer chamber. Cells were seeded in quadruplicates in white 96-well plates (2.5×10^4 cells/well) and incubated for 24 h. Subsequently, luciferase activity was measured in a luminometer (Tecan Infinite200) after addition of luciferin mix for 90 min. Transfection was successful and consequently ADCC measurable, if RLU values >1.000 were obtained.
Pancreatic cancer target cells were seeded two days in advance in flasks to obtain 80-90% confluent cultures on the day ADCC started. […] NUGC-4 sub 10cH11 subE10 Luci #2 cells (8000 cells/well) were seeded in addition as positive controls in all assays. Cells were cultivated for 4-6 h before addition of antibody and purified PBMCs. PBMCs were prepared from fresh human buffy coat obtained from healthy donors. About 3× 20-25 ml blood was diluted (1:2) with PBS and carefully layered on 4×15 ml Ficol-Paque Plus (GE Healthcare) in 50 ml Falcon tubes. Gradients were centrifuged (25 min, 700 g). After centrifugation, peripheral blood mononuclear cells (PBMC) were collected from the interphase, washed in PBS/2 mM EDTA, centrifuged (5 min, 468 g), again resuspended in PBS/2 mM EDTA and centrifuged (10 min, 208 g) to remove the platelets. The pellets were resuspended in 50 ml PBS/2 mM EDTA and cells were counted. PBMCs were centrifuged (5 min, 468 g) and resuspended in X-Vivo-15 culture medium at a concentration of 1.6×10^7 cells/ml for addition to the pancreas cells and 1.28×10^7 cells/ml for addition to the NUGC-4 sub 10cH11 subE10 Luci #2 cells.
Of each dilution 25 μl was added in quadruplicates to the target cells. PBS without antibodies was added in the medium and lysis control wells. Subsequently, 25 μl PBMCs were added to each well (E:T ratio=40:1) and plates were incubated for 24 h±1 h at 37° C., 5% CO2.
The next day, 10 μl 8% Triton X100/PBS solution was added to the lysis control wells and 10 μl PBS in all other wells. Finally, 50 μl freshly prepared luciferin stock solution was added (160 mM HEPES, 1×PBS, 3.84 mg/ml D-Luciferin (BD Biosciences)) to each well and plates were incubated for 80 min at RT in the dark. Luminescence resulting from the oxidation of […] by the luciferase of viable cells was measured using a microplate-reader (Infinite200, Tecan, Switzerland). Percentage of cellular cytotoxicity was calculated using the following formula: Specific killing (%)=100−[(RLUsample−RLUtriton)/(RLUmedium ctrl−RLUtriton)×100]
ADCC analyses were also performed with LVT pancreatic cancer cell lines and their corresponding parental cell lines (FIG. 22B-F).

[2] = biological target: first extracellular domain (ECD1) of CLDN18.2 (Homo sapiens, UniProt P56856); test: Target binding of IMAB362 (background)
MiaPaCa-2-LVT = test: IMAB362-mediated CDC after cultivation with chemotherapeutic agents
Description: Dose response curves of 2 independent assays. MiaPaCa2-LVT were cultivated in medium, Gem (10 ng/ml) or GemOx (10 ng/ml Gem+100 ng/ml Ox) for 70 h.
CDC was performed as follows.
An additional positive control was generated at the end of the reaction by addition of 0.8% Triton X100 to a second medium control well causing total lysis. […] All samples were prepared (200 μl each) at the same time in a 96 well deepwell dilution plate. Samples were taken 3 times from each well by reverse pipetting to generate the triplicates in the assay plates.
To each well 10 μl PBS was added, except in the Triton-Lysis control wells. To each Triton-Lysis control well, 10 μl 0.8% Triton/PBS solution was added. Luciferin substrate solution was prepared (6114 μl Aqua bidest, 2496 μl HEPES (IM), 1998 μl 1×DPBS, 4992 μl D-Luciferin Stocksolution (12 mg/ml)). To each well 50 μl Luciferin substrate solution was added. […] Plates will be measured in a microplate reader. • Complement-dependent lysis was calculated using formula: Specific lysis (%)=100−[(RLUsample−RLUtriton)/(RLUHSCM−RLUtriton)×100]
Modifications for testing the pancreatic cancer cell lines: • Pancreatic cancer cells were transfected with luciferase RNA using optimized conditions.

CLDN18.1 = CLDN18.1 (Homo sapiens, UniProt P56856); test: Binding to other claudin family members (background)
SW1990 = test: IMAB362-mediated ADCC assay; assay type: cell-based, human; settings: at least 2 donors

Nc1ccn([C@@H]2O[C@H](CO)[C@@H](O)C2(F)F)c(=O)n1 [gemcitabine, 4-amino-1-(2-deoxy-2,2-difluoro-β-D-erythro-pentofuranosyl)pyrimidin-2(1H)-one]
IC50 (Capan1-LVT): ~0.001 µg/mL (≈ 3.8 nM)

IMAB362: chimeric IgG1 antibody directed against CLDN18.2, developed by Ganymed Pharmaceuticals AG
ADCC EC50 ([1]; BxPC3 (ATCC)): n.m.
ADCC Max. lysis ([1]; BxPC3 (ATCC)): n.m.
ADCC EC50 ([1]; BxPC3 (ECACC)): n.m.
ADCC EC50 ([1]; BxPC3 LVT): 0.0477 ± 0.0191 µg/mL
ADCC Max. lysis ([1]; BxPC3 LVT): 90.6 ± 6.4%
ADCC EC50 ([1]; CAPAN1-LVT): 0.06503 ± 0.0351 µg/mL
ADCC Max. lysis ([1]; CAPAN1-LVT): 92.6 ± 5.5%
ADCC EC50 ([1]; CAPAN1): n.m.
ADCC Max. lysis ([1]; CAPAN1): n.m.
ADCC EC50 ([1]; DANG-LVT): 0.0523 ± 0.0277 µg/mL
ADCC Max. lysis ([1]; DANG-LVT): 85.9 ± 11.7%
ADCC EC50 ([1]; HPAC-LVT): 0.1168 ± 0.1054 µg/mL
ADCC Max. lysis ([1]; HPAC-LVT): 76.2 ± 19.4%
ADCC Max. lysis ([1]; HPAC): 0-22.2%
target dependence of ADCC ([1]; LVT cell lines versus CLDN18.2 negative parental cell lines): only CLDN18.2 positive target cells are killed
ADCC killing ([1]; LVT pancreas CA cell lines): killed upon addition of small amounts of antibody at high rates
ADCC EC50 ([1]; MiaPaCa2-LVT): 0.0234 ± 0.0123 µg/mL
ADCC Max. lysis ([1]; MiaPaCa2-LVT): 78.1 ± 6.0%
ADCC EC50 ([1]; MiaPaCa2): n.m.
ADCC EC50 ([1]; Patu8902-LVT): 0.0492 ± 0.0862 µg/mL
ADCC Max. lysis ([1]; Patu8902-LVT): 74.1 ± 16.4%
ADCC EC50 ([1]; Patu8902): n.m.
ADCC EC50 ([1]; Suit2-LVT): 0.0732 ± 0.0147 µg/mL
ADCC Max. lysis ([1]; Suit2-LVT): 81.2 ± 7.6%
ADCC EC50 ([1]; Suit2): n.m.
ADCC Max. lysis ([1]; Suit2): n.m.
ADCC EC50 ([1]; YAPC-LVT): 0.0295 ± 0.0157 µg/mL
ADCC Max. lysis ([1]; YAPC-LVT): 91.5 ± 6.3%
ADCC EC50 ([1]; YPAC): n.m.
ADCC Max. lysis ([1]; YPAC): n.m.
recognition of ECD1 of CLDN18.2 [2]: high affinity and specificity
max lyses (CDC), Gem treated versus medium (MiaPaCa-2-LVT; MiaPaCa-2-LVT treated with Gem): increase
EC50 for IMAB362 specific lyses (CDC) (MiaPaCa-2-LVT; MiaPaCa-2-LVT treated with Gem (10 ng/ml, 70 h)): 4.677 µg/mL
EC50 for IMAB362 specific lyses (CDC) (MiaPaCa-2-LVT; medium cultivated MiaPaCa-2-LVT): 7.665 µg/mL
binding to CLDN18.1 and other claudin family members (CLDN18.1): does not bind
ADCC EC50 (SW1990): n.m.
ADCC Max. lysis (SW1990): n.m.
